The values below come from patent US20200055821A1, “METHOD FOR MANUFACTURING DIASTEREOMER OF CITRIC ACID DERIVATIVE” (OTSUKA PHARMACEUTICAL FACTORY, INC., priority 2017, published 2020).

The nature of data set [1]: stability of compound A in aqueous solution by pH (hydrolysis seen by HPLC). Format: physicochemical. The text has this:
The difficult point when the crystal of the compound A is obtained by the present method is in removing citric acid from the aqueous solution containing the compound A and citric acid in an acidic condition. Since the compound A is unstable in a neutral to alkaline (pH of 5 or higher) aqueous solution, in order to suppress decomposition of the compound A, maintenance of an acidic condition is important. Therefore, the aqueous solution containing the compound A and citric acid and having a pH of 2.0 or lower to be used in the step (a) may be an aqueous solution whose pH is preferably 0.6 to 1.8 and most preferably 1.0 to 1.6. […]
The purified precipitate obtained at a pH of 3.6 by the above operation and the purified precipitate obtained at a pH of 6.0 thereby were each evaluated by qualitative analysis using HPLC (FIG. 5, FIG. 6). The each precipitate (about 10 mg) was dissolved in purified water (about 1 mL), diluted 40-fold with a 10 mM perchloric acid solution being a mobile phase of the qualitative analysis using HPLC, and analyzed (by being diluted with the 10 mM perchloric acid solution, which was an acidic solvent, the Ca salts of the compound A were converted to the compound A, thus the detection was made as the compound A.). […]

Data set [2] can be described thus: solubility in isopropanol-water mixed solvent. Format: physicochemical. To be noted: mixed solvent of isopropanol and water, ratio of isopropanol 40% or higher. Here is the method: A highly purified crystalline powder of the compound A was obtained by repeating three times the same operation as in the recrystallization described in the paragraph of Example 3. 100 mL of purified water (Japanese Pharmacopoeia purified water) was added to 10 g of the crystalline powder, which was then dissolved by heating the resultant in a water bath at 50° C. The resultant solution was filtered by using a membrane filter (Merck Millipore) of 0.22 μm in pore size, and the resultant filtrate was collected. The filtrate was concentrated by using an evaporator on a water bath at 40° C. to thereby collect the resultant as an about 50 ml of a solution. This solution was concentrated and […] to thereby become a solution in a supersaturated state. The solution as it was in the heated state (40° C.) was dispensed in test tubes with a lid so as to have solvent ratios indicated in the following Table (Table 4) to thereby produce solutions having mixed solvents. Specifically, by adding 100 μL of organic solvents of methanol, ethanol, acetone and the like to 400 μL of the supersaturated solution, there was made a solution having a water ratio in the mixed solvent of 80%. […]

The next data set concerns liver disorder. To be noted: known active substance; cited from earlier work.
Data set [3] is described as follows: hygroscopicity and handling of the solid. In kind it is physicochemical. The settings on record: when concentrated and solidified / powder. The text has this: On the other hand, the crystal of the compound A was a non-hygroscopic powder, which was easily handled.

The structures appear in SMILES notation.

With `O=C(O)CC(C(=O)O)N1C(=O)CC(O)(CC(=O)O)C1=O` (stereo not drawn) [compound A], the “hydrolysis of the imide structure” value in data set [1] (alkali added for the pH to be 6.0, 80% ethanol precipitation, HPLC) is reported as “hydrolysis of the compound A progressed”. The “stability in aqueous solution” value in data set [1] (neutral to alkaline (pH of 5 or higher) aqueous solution) is reported as “unstable”. In addition, the solubility result in data set [2] is given as “decreased”. The “inhibitory effect against liver disorder” value in the data set on liver disorder is “inhibitory effect against liver disorder”.

Turning to `O=C(O)CC(C(=O)O)N1C(=O)C[C@@](O)(CC(=O)O)C1=O` (stereo partly drawn) [crystal of the compound A], the hygroscopicity entry in data set [3] is listed as “non-hygroscopic”.

As to `O=C(O)C[C@@H](C(=O)O)N1C(=O)C[C@@](O)(CC(=O)O)C1=O` [noncrystal of the compound A], the hygroscopicity result in data set [3] was “had hygroscopicity”.
